Laboratory results taken from ChEMBL document CHEMBL2407069, “Pyrimidone-based series of glucokinase activators with alternative donor-acceptor motif” (Bioorg Med Chem Lett, 2013).

Experiments:
[1] = Intrinsic clearance in rat liver microsomes; type: ADME, Microsome; conditions: read-out: CLH
[2] = Half life in Wistar-Han rat at 1 mg/kg, iv; type: ADME, organism-based; parameters: dose 1 mg/kg, route intravenous; conditions: in vivo
[3] = Lipophilicity, log D of the compound by shake-flask method; type: physicochemical; conditions: octanol/water
[4] = Clearance in Wistar-Han rat at 1 mg/kg, iv; type: ADME, organism-based; parameters: dose 1 mg/kg, route intravenous; conditions: in vivo
[5] = Volume of distribution at steady state in Wistar-Han rat at 1 mg/kg, iv; type: ADME, organism-based; parameters: dose 1 mg/kg, route intravenous; conditions: in vivo, read-out: Vdss
[6] = Cmax in Wistar-Han rat at 5 mg/kg, po; type: ADME, organism-based; parameters: dose 5 mg/kg, route oral; conditions: in vivo
[7] = Intrinsic clearance in human liver microsomes; type: ADME, Microsome; conditions: read-out: CLH
[8] = AUC in Wistar-Han rat at 5 mg/kg, po; type: ADME, organism-based; parameters: dose 5 mg/kg, route oral; conditions: plasma
[9] = Oral bioavailability in Wistar-Han rat at 5 mg/kg; type: ADME, organism-based; conditions: in vivo

| CLint scaled [1] [mL/min/kg] | half-life [2] [h] | logD [3] | clearance [4] [mL/min/kg] | Vd [5] [L/kg] | Cmax [6] [ng/mL] | CLint scaled [7] [mL/min/kg] | AUC [8] [ng·h/mL] | bioavailability [9] [%] | SMILES |
| --- | --- | --- | --- | --- | --- | --- | --- | --- | --- |
| 91 | 6 | 1.91 | 44 | 5.79 | 412 | 22.4 | 580 | 32 | CCC(CC)Oc1cc(Oc2cnc(C(=O)N(C)C)nc2)cc(-c2nccc(=O)[nH]2)c1 |
| < 25.4 | – | 2.01 | – | – | – | < 8 | – | – | CNS(=O)(=O)c1ccc(Oc2cc(O[C@@H](C)CO)cc(-c3ncc(C)c(=O)[nH]3)c2)cc1 |
| 61 | – | 2.27 | – | – | – | 11 | – | – | CC(C)Oc1cc(Oc2ccc(S(C)(=O)=O)cc2)cc(-c2cncc(=O)[nH]2)c1 |
| 171 | – | 3.11 | – | – | – | < 8 | – | – | CCc1cnc(-c2cc(Oc3ccc(S(C)(=O)=O)cc3)cc(OC(C)C)c2)[nH]c1=O |
| 106 | – | 1.74 | – | – | – | < 8 | – | – | CN(C)C(=O)c1ncc(Oc2cc(OC3CCCC3)cc(-c3nccc(=O)[nH]3)c2)cn1 |
| 189 | 5.3 | 2.68 | 13 | 0.746 | 31 | < 8 | 141 | 2 | Cc1cnc(-c2cc(Oc3ccc(S(C)(=O)=O)cc3)cc(OC(C)C)c2)[nH]c1=O |
| 26 | – | -0.02 | – | – | – | < 8 | – | – | C[C@@H](CO)Oc1cc(Oc2cnc(C(=O)N(C)C)nc2)cc(-c2nccc(=O)[nH]2)c1 |
| 349 | – | 2.82 | – | – | – | < 8 | – | – | CC(C)Oc1cc(Oc2ccc(S(C)(=O)=O)cc2)cc(-c2cccc(=O)[nH]2)c1 |
| 97 | – | 4.05 | – | – | – | 17 | – | – | Cc1ccc(NC(=O)c2cc(Oc3ccc(S(C)(=O)=O)cc3)cc(OC(C)C)c2)nc1 |
| 47 | – | 1.34 | – | – | – | < 8 | – | – | CC(C)Oc1cc(Oc2cnc(C(=O)N(C)C)cn2)cc(-c2nccc(=O)[nH]2)c1 |
| 102 | – | 1.54 | – | – | – | 8.3 | – | – | CC(C)Oc1cc(Oc2cnc(C(=O)N(C)C)c(F)c2)cc(-c2nccc(=O)[nH]2)c1 |
| 38 | – | 0.43 | – | – | – | < 8 | – | – | COC[C@H](C)Oc1cc(Oc2cnc(C(=O)N(C)C)nc2)cc(-c2nccc(=O)[nH]2)c1 |
| 105 | 1.5 | 2.14 | 61 | 6.41 | 150 | < 9.8 | 703 | 29 | CC(C)Oc1cc(Oc2ccc(S(C)(=O)=O)cc2)cc(-c2nccc(=O)[nH]2)c1 |
| < 25.4 | – | 0.97 | – | – | – | < 8 | – | – | CC(C)Oc1cc(Oc2cnc(C(=O)N(C)C)nc2)cc(-c2nccc(=O)[nH]2)c1 |
| < 25.4 | 1.8 | 1.42 | 19 | 0.746 | 74 | < 8 | 253 | 6 | CCS(=O)(=O)c1ccc(Oc2cc(O[C@@H](C)CO)cc(-c3nccc(=O)[nH]3)c2)cc1 |
| 96 | – | 2.43 | – | – | – | < 8 | – | – | Cc1cc(=O)[nH]c(-c2cc(Oc3ccc(S(C)(=O)=O)cc3)cc(OC(C)C)c2)n1 |
| < 25.4 | – | 1.48 | – | – | – | < 8 | – | – | Cc1cnc(-c2cc(Oc3cnc(C(=O)N(C)C)nc3)cc(OC(C)C)c2)[nH]c1=O |
| – | – | 2.26 | – | – | – | 12 | – | – | Cc1cnc(-c2cc(Oc3ccc(S(=O)(=O)N(C)C)cc3)cc(O[C@@H](C)CO)c2)[nH]c1=O |
| – | – | 2.63 | – | – | – | < 8 | – | – | CNS(=O)(=O)c1ccc(Oc2cc(OC(C)C)cc(-c3nccc(=O)[nH]3)c2)cc1 |
| < 25.4 | – | 2.04 | – | – | – | < 8 | – | – | CC(C)Oc1cc(Oc2ccc(S(C)(=O)=O)cc2)cc(-c2ncc(Cl)c(=O)[nH]2)c1 |
| < 25.4 | – | 0.81 | – | – | – | < 8 | – | – | COC[C@H](C)Oc1cc(Oc2cnc(C(=O)N(C)C)cn2)cc(-c2nccc(=O)[nH]2)c1 |
| < 25.4 | – | 2.21 | – | – | – | < 8 | – | – | COc1cnc(-c2cc(Oc3ccc(S(C)(=O)=O)cc3)cc(OC(C)C)c2)[nH]c1=O |
